The assay addresses Envelope glycoprotein gp160 (Human immunodeficiency virus 1, UniProt Q6QLK5). Description: inhibitors of HIV fusion peptide binding, primary screen, biochemical, uHTS, fluorescence dequenching (AID 1986).

We go through 1 compound from ChEMBL document CHEMBL1201862, “PubChem BioAssay data set” (2004).

Activity calls are given as the source filed them. Rule as the data show it: actives have a measured IC50 and inactives only a lower limit.

Chain of Envelope glycoprotein gp160 (Q6QLK5 whole entry, the tested form may be a part): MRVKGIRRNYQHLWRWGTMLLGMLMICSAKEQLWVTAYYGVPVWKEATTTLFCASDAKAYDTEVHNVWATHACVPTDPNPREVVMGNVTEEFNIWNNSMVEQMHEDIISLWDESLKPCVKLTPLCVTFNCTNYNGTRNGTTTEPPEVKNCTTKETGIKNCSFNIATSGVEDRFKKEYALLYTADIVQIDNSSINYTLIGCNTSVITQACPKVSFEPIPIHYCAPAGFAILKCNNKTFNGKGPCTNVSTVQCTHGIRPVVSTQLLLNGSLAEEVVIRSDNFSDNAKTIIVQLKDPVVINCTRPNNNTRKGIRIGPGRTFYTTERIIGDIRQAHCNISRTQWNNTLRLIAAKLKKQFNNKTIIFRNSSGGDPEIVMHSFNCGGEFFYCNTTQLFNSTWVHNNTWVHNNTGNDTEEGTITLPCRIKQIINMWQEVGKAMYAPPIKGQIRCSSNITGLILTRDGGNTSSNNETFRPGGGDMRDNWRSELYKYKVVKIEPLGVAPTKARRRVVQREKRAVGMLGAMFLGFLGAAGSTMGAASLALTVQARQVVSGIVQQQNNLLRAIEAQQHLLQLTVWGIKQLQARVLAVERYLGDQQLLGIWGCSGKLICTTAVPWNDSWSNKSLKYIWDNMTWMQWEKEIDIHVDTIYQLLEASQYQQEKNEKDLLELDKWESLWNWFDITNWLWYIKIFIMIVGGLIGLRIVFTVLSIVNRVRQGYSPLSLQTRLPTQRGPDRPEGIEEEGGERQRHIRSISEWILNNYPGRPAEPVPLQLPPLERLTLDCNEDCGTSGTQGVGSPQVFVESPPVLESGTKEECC

In general, IC50 refers to the concentration needed to halve the response being measured. As for `COc1ccc(S(=O)(=O)Nc2ccccc2C(=O)Nc2nc(-c3ccc(F)cc3)cs2)cc1OC`, the IC50 is 14.8 µM (active).
